The test system of this experiment is subgenomic HCV Replicon in HuH-7 cells. The experiment in a line: Assay for inhibition of HCV RNA replication (replicon, in situ ribonuclease protection SPA). In kind it is cell-based, Hepatitis C Virus.
Where [1] appears, read: Hepatitis C virus, HuH-7 hepatoma cells containing a subgenomic HCV Replicon, inhibition of HCV RNA replication, read-out: EC50.
Where [2] appears, read: HuH-7 hepatoma cells containing a subgenomic HCV Replicon, inhibition of HCV RNA replication, read-out: EC50.

Our source for the EC50 values is US20100152128A1, “Antiviral Agents” (priority 2007, published 2010).

Broadly, the EC50 is the concentration needed to bring the measured effect to its halfway point.

Like-named read-outs stand apart in the source and are kept apart here.

`CCCC(CCC)COC(=O)[C@H](C)NP(=O)(O)OC[C@H]1O[C@@H](n2ccc(N)nc2=O)[C@](C)(O)[C@@H]1O` [Example 2, 5′-O-[hydroxy[[(1S)-1-methyl-2-oxo-2-[(2-propylpentyl)oxy]ethyl]amino]phosphinyl]-2′-C-methylcytidine]: under setting [1], the concentration for a half-maximal effect (EC50) is 6 µM.

Turning to `C[C@H](NP(=O)(O)OC[C@H]1O[C@@H](n2ccc(N)nc2=O)[C@](C)(O)[C@@H]1O)C(=O)OC1CCCCCC1` [Example 4, 5′-O-[[[(1S)-2-(cycloheptyloxy)-1-methyl-2-oxoethyl]amino]hydroxyphosphinyl]-2′-C-methylcytidine], the EC50 under setting [1] came to 9.9 µM. Consider `C[C@H](NP(=O)(O)OC[C@H]1O[C@@H](n2ccc(N)nc2=O)[C@](C)(O)[C@@H]1O)C(=O)OC1CCCCCCC1` [Example 5, 5′-O-[[[(1S)-2-(cyclooctyloxy)-1-methyl-2-oxoethyl]amino]hydroxyphosphinyl]-2′-C-methylcytidine], for which the EC50 under setting [1] was 9.9 µM. For `CCCC(CCC)c1noc([C@H](C)NP(=O)(O)OC[C@H]2O[C@@H](n3ccc(N)nc3=O)[C@](C)(O)[C@@H]2O)n1` [Example 8, [(3aR, 4aR, 6R, 6aR)-6-(4-amino-2-oxopyrimidin-1(2H)-yl)-3,4-dihydroxy-4-methyltetrahydrofuran-2-yl]methyl hydrogen{(1S)-1-[3-(1-propylbutyl)-1,2,4-oxadiazol-5-yl]ethyl}amidophosphate], under setting [2], the half-maximal effective concentration (EC50) stood at 5.4 µM.

In turn, `CCCC(CCC)c1nnc([C@H](C)NP(=O)(O)OC[C@H]2O[C@@H](n3ccc(N)nc3=O)[C@](C)(O)[C@@H]2O)o1` [Example 9, 5-O-[hydroxy[[1-[5-(1-propylbutyl)-1,3,4-oxadiazol-2-yl]ethyl]amino]phosphinyl]-2′-C-methylcytidine] had an EC50 (Hepatitis C virus, Huh-7) of 10.6 µM. On to `CCCC(CCC)COC(=O)C(C)NP(=O)(O)OC[C@H]1O[C@@H](n2ccc3c(N)ncnc32)[C@](C)(O)[C@@H]1O` (stereo partly shown) [Example 10, 5′-O-[hydroxyl[[1-methyl-2-oxo-2-[(propylpentyl)oxy]ethyl]amino]phosphinyl]-2′-C-methyl-7-deaza adenosine], for which, under setting [2], the EC50 is 1.1 µM. As to `CCCC(CCC)C(=O)OCCNP(=O)(O)OC[C@H]1O[C@@H](n2ccc3c(N)ncnc32)[C@](C)(O)[C@@H]1O` [Example 11, 5′-O-[hydroxyl[[2-[(1-oxo-2-propylpentyl)oxy]ethyl]amino]phosphinyl]-2′-C-methyl-7-deaza adenosine], the EC50 under setting [1] was 0.7 µM.
